Structures can show the parent of a compound that is named as a salt.
What was measured:
serotonin transporter = target: T1, serotonin transporter (Rattus norvegicus, UniProt P31652); assay: Displacement of 3H-paroxetine from male rat frontal cortical membranes (serotonin transporter affinity); assay type: binding; details: read-out: 5-HT Transporter Affinity Ki
T1 construct: displace ^3H-paroxetine from male rat frontal cortical membranes; from tissue; host or cells: male rat frontal cortex membranes

[1] = target: T2, cloned human 5HT1A receptors (Homo sapiens, UniProt P08908); assay: 35S-GTPγS binding assay, membranes containing cloned human 5HT1A receptors; assay type: biochemical; details: for EC50: given as EC50, increase in 35S-GTPγS binding (agonist), read-out: 5HT1A Function EC50; for Emax: given as Emax, agonist effect, read-out: 5HT1A Function Emax; for IC50: antagonist potency, reversal of the standard agonist 8-OH-DPAT, read-out: 5HT1A Function IC50; for 5HT1A Function (Imax): maximum inhibitory effect, value in parentheses
T2 construct: expressed in transfected cells
T2 sequence (P08908 1-422): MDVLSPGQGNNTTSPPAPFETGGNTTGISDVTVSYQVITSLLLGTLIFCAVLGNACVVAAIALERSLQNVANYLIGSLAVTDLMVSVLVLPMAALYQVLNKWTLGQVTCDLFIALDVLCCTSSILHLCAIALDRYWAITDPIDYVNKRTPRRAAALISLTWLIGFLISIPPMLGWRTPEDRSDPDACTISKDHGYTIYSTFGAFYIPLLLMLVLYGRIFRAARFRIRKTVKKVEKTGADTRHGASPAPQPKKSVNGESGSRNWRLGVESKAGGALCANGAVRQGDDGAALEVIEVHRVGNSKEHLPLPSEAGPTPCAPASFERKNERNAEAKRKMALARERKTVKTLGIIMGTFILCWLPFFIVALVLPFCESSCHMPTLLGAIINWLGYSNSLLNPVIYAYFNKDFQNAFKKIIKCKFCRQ
Method: Antagonist activity at 5HT1A receptors was established by using a ^35S-GTPγS binding assay similar to that used by Lazareno and Birdsall (Br. J. Pharmacol. 109:1120, 1993), in which the test compound's ability to affect the binding of ^35S-GTPγS to membranes containing cloned human 5HT1A receptors was determined. Agonists produce an increase in binding whereas antagonists produce no increase but rather reverse the effects of the standard agonist 8-OH-DPAT. The test compound's maximum inhibitory effect is represented as the Imax, while its potency is defined by the IC50.

human 5HT1A receptors = target: T3, human 5HT1A receptors (Homo sapiens, UniProt P08908); assay: Displacement of [3H] 8-OH-DPAT from 5HT1A receptor in stably transfected CHO cells; assay type: binding; details: CHO cells with human 5HT1A receptors, read-out: 5HT1A Receptor Affinity Ki
T3 construct: expressed in transfected cells; host or cells: CHO cells
T3 sequence (P08908 1-422): T2 sequence (P08908 1-422)
Text: High affinity for the serotonin 5HT1A receptor was established by testing the claimed compound's ability to displace [^3H] 8-OH-DPAT (dipropylamino-tetralin) from the 5HT1A serotonin receptor following a modification of the procedure of Hall, et al., J. Neurochem. 44, 1685 (1985), which utilizes CHO cells stably transfected with human 5HT1A receptors.

T1 sequence (P31652 whole entry): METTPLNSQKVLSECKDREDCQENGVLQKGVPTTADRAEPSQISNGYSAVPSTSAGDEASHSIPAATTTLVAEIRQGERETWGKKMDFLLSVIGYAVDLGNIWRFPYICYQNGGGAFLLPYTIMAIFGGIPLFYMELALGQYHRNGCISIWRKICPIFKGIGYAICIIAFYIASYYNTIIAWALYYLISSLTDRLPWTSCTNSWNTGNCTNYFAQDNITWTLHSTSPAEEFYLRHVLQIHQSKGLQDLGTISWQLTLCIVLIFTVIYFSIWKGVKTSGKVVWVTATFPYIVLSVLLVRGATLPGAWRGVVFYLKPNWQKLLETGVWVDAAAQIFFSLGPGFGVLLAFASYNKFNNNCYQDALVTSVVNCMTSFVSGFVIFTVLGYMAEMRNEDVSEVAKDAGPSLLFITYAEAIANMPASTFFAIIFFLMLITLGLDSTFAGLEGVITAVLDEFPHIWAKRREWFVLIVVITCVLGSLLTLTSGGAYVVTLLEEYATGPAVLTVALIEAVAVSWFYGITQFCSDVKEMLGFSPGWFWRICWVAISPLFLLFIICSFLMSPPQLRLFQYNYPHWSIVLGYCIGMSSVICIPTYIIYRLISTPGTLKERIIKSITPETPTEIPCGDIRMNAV

| SMILES | Ki (serotonin transporter) [nM] | Ki (human 5HT1A receptors) [nM] | IC50 [1] [nM] | 5HT1A Function (Imax) [1] [%] | melting point | EC50 [1] [nM] | Emax [1] [%] |
| --- | --- | --- | --- | --- | --- | --- | --- |
| Cc1ccc2c3c(ccc2n1)OC[C@H](CN[C@H]1CC[C@@H](c2c[nH]c4ccccc24)C1)O3 (mixture of isomers) [Example 1, N-[(cis)-3-(1H-indol-3-yl)cyclopentyl]-N-{[(2S)-8-methyl-2,3-dihydro[1,4]dioxino[2,3-f]quinolin-2-yl]methyl}amine] | 1.25 | 2.56 |  |  |  | 33 | 38 |
| Cc1ccc2c3c(ccc2n1)OC[C@H](CN[C@@H]1CC[C@@H](c2c[nH]c4ccc(F)cc24)C1)O3 (single isomer, unassigned) [Example 4-Isomer B, N-[(1R*,3R*)-3-(5-fluoro-1H-indol-3-yl)cyclopentyl]-N-{[(2S)-8-methyl-2,3-dihydro[1,4]dioxino[2,3-f]quinolin-2-yl]methyl}amine] | 0.67 | 26.5 | 1440 | 100 |  |  |  |
| Cc1ccc2c3c(ccc2n1)OC[C@H](CN[C@H]1CC[C@@H](c2c[nH]c4ccc(F)cc42)CC1)O3 [Example 7, (cis)-N-[4-(5-fluoro-1H-indol-3-yl)cyclohexyl]-N-{[(2S)-8-methyl-2,3-dihydro[1,4]dioxino[2,3-f]quinolin-2-yl]methyl}amine] | 19 | 51.7 |  |  |  |  |  |
| Cc1ccc2c3c(ccc2n1)OC[C@H](CN[C@@H]1CC[C@H](c2c[nH]c4ccc(F)cc24)C1)O3 (single isomer, unassigned) [Example 3-Isomer A, N-[(1R*,3S*)-3-(5-fluoro-1H-indol-3-yl)cyclopentyl]-N-{[(2S)-8-methyl-2,3-dihydro[1,4]dioxino[2,3-f]quinolin-2-yl]methyl}amine] | 0.38 | 8.73 | 69 | 82 |  |  |  |
| Cc1ccc2c3c(ccc2n1)OCC(CNC1CCC(c2c[nH]c4ccc(F)cc24)C1)O3 (single isomer, unassigned) [Example 3-Isomer B, N-[(1S*,3R*)-3-(5-fluoro-1H-indol-3-yl)cyclopentyl]-N-{[(2S)-8-methyl-2,3-dihydror[1,4]dioxino[2,3-f]quinolin-2-yl]methyl}amine] | 0.33 | 2.03 | 34 | 97 |  |  |  |
| Cc1ccc2c3c(ccc2n1)OCC(CNC1CCC(c2c[nH]c4ccc(F)cc24)C1)O3 [Example 4, N-[(trans)-3-(5-fluoro-1H-indol-3-yl)cyclopentyl]-N-{[(2S)-8-methyl-2,3-dihydro[1,4]dioxino[2,3-f]quinoli-2-yl]methyl}amine] | 0.62 | 9.12 | 44 | 84 |  |  |  |
| Cc1ccc2c3c(ccc2n1)OCC(CNC1CCC(c2c[nH]c4ccccc24)C1)O3 [Example 2, N-[(trans)-3-(1H-indol-3-yl)cyclopentyl]-N-{[(2S)-8-methyl-2,3-dihydro[1,4]dioxino[2,3-f]quinoli-2-yl]methyl}amine] | 1.69 | 12.8 |  |  |  |  |  |
| Cc1ccc2c3c(ccc2n1)OC[C@H](CN[C@H]1CC[C@H](c2c[nH]c4ccc(F)cc42)CC1)O3 [Example 8, (trans)-N-[4-(5-fluoro-1H-indol-3-yl)cyclohexyl]-N-{[(2S)-8-methyl-2,3-dihydro[1,4]dioxino[2,3-f]quinolin-2-yl]methyl}amine] | 4.16 | 14.6 |  |  |  | 66 | 95 |
| Cc1ccc2c3c(ccc2n1)OC[C@H](CN(C)[C@H]1CC[C@@H](c2c[nH]c4ccc(F)cc24)C1)O3 (mixture of isomers) [Example 9, N-[(cis)-3-(5-fluoro-1H-indol-3-yl)cyclopentyl]-N-methyl-N-{[(2S)-8-methyl-2,3-dihydro[1,4]dioxino[2,3-f]quinolin-2-yl]methyl}amine] | 0.84 | 5.01 | 242 | 100 |  |  |  |
| Cc1ccc2c3c(ccc2n1)OC[C@H](CN(C)[C@@H]1CC[C@H](c2c[nH]c4ccc(F)cc24)C1)O3 (relative stereo) (as salt: fumarate) [Example 13, N-[(1R*,3S*)-3-(5-fluoro-1H-indol-3-yl)cyclopentyl]-N-methyl-N-{[(2S)-8-methyl-2,3-dihydro[1,4]dioxino[2,3-f]quinolin-2-yl]methyl}amine] |  |  |  |  | 198 to 199 °C (dec.) |  |  |
| Cc1ccc2c3c(ccc2n1)OC[C@H](CN(C)[C@@H]1CC[C@H](c2c[nH]c4ccc(F)cc24)C1)O3 (relative stereo) [Example 13, N-[(1R*,3S*)-3-(5-fluoro-1H-indol-3-yl)cyclopentyl]-N-methyl-N-{[(2S)-8-methyl-2,3-dihydro[1,4]dioxino[2,3-f]quinolin-2-yl]methyl}amine] | 5.45 | 18.8 | 494 | 100 |  |  |  |

Further lines, with some results ahead:

| Ki (serotonin transporter) [nM] | Ki (human 5HT1A receptors) [nM] | IC50 [1] [nM] | 5HT1A Function (Imax) [1] [%] | melting point | SMILES | EC50 [1] [nM] | Emax [1] [%] |
| --- | --- | --- | --- | --- | --- | --- | --- |
|  |  |  |  | 234 to 235 °C | Cc1ccc2c3c(ccc2n1)OC[C@H](CN[C@H]1CC[C@@H](c2c[nH]c4ccc(F)cc24)C1)O3 (mixture of isomers) (as salt: HCl) (hydrate or solvate) [Example 3, N-[(cis)-3-(5-fluoro-1H-indol-3-yl)cyclopentyl]-N-{[(2S)-8-methyl-2,3-dihydro[1,4]dioxino[2,3-f]quinolin-2-yl]methyl}amine] |  |  |
| 2.11 | 12.5 | 190 | 88 |  | Cc1ccc2c3c(ccc2n1)OCC(CNC1CCC(c2cn(C)c4ccc(F)cc24)C1)O3 (single isomer, unassigned) [Example 5-Isomer A, N-[(1R*,3S*)-3-(5-fluoro-1-methyl-1H-indol-3-yl)cyclopentyl]-N-{](2S)-8-methyl-2,3-dihydro[1,41]dioxino[2,3-f]quinoli-2-yl]methyl}amine] |  |  |
| 0.93 | 4.73 | 83 | 100 |  | Cc1ccc2c3c(ccc2n1)OC[C@H](CN[C@H]1CC[C@@H](c2c[nH]c4ccc(F)cc24)C1)O3 (mixture of isomers) [Example 3, N-[(cis)-3-(5-fluoro-1H-indol-3-yl)cyclopentyl]-N-{[(2S)-8-methyl-2,3-dihydro[1,4]dioxino[2,3-f]quinolin-2-yl]methyl}amine] |  |  |
| 0.54 | 7.72 | 60 | 56 |  | Cc1ccc2c3c(ccc2n1)OC[C@H](CN[C@H]1CC[C@H](c2c[nH]c4ccc(F)cc24)C1)O3 (single isomer, unassigned) [Example 4-Isomer A, N-[(1S*,3S*)-3-(5-fluoro-1H-indol-3-yl)cyclopentyl]-N-{[(2S)-8-methyl-2,3-dihydro[1,4]dioxino[2,3-f]quinolin-2-yl]methyl}amine] |  |  |
| 3.69 | 5.35 | 142 | 69 |  | Cc1ccc2c3c(ccc2n1)OCC(CNC1CCC(c2cn(C)c4ccc(F)cc24)C1)O3 (single isomer, unassigned) [Example 5] |  |  |
| 3 | 1.91 | 158 | 97 |  | Cc1ccc2c3c(ccc2n1)OCC(CNC1CCC(c2cn(C)c4ccc(F)cc24)C1)O3 (single isomer, unassigned) [Example 5-Isomer B, N-[(1S*,3R*)-3-(5-fluoro-1-methyl-1H-indol-3-yl)cyclopentyl]-N-{[(2S)-8-methyl-2,3-dihydro[1,4]dioxino[2,3-f]quinoli-2-yl]methyl}amine] |  |  |
| 1.67 | 20.3 | 228 | 55 |  | Cc1ccc2c3c(ccc2n1)OCC(CNC1CCC(c2cn(C)c4ccc(F)cc24)C1)O3 (single isomer, unassigned) [Example 6] |  |  |

— US6911445B2, “Antidepressant cycloalkylamine derivatives of heterocycle-fused benzodioxans” (Wyeth, priority 2002, dated 2005)
